Test results taken from US20060004043A1, “Indazole compounds and methods of use thereof” (priority 2003, published 2006).

Molecular target: Rsk1 (Rattus norvegicus, UniProt Q63531)
Assay: Rsk1(r) kinase assay, 33P-ATP filter binding
Type: biochemical
Details: compound at 3 μM; [ATP] = 10 μM
Procedure: The assays briefly described below in Examples 54-123 were carried out as described in Davies et al., Biochem. J., 351:95-105 (2000). All assays were carried out at 10 μM ATP unless otherwise noted.
All kinases are pre-diluted to a 10× working concentration prior to addition into the assay. The composition of the dilution buffer for each kinase is described below in Table 3.
In addition, the following abbreviations are used: h is human; r is rat; m is mouse; b is bovine; and y is yeast.
In a final reaction volume of 25 μl, Rsk1(r) (5-10 mU) is incubated with 8 mM MOPS pH 7.0, 0.2 mM EDTA, 30 μM […], 10 mM MgAcetate and [γ-^33P-ATP] (Specific activity approx. 500 cpm/pmol, concentration as required). The reaction is initiated by the addition of Mg^2+[γ-^33P-ATP]. After incubation for 40 minutes at room temperature, the reaction is stopped by the addition of 5 μl of a 3% phosphoric acid solution. 10 μl of the reaction is then spotted onto a P30 filtermat and washed three times for 5 minutes in 75 mM phosphoric acid and once in methanol prior to drying and scintillation counting.
Using the appropriate assay protocols as listed above, kinase inhibition data for Compounds 21 and 71 was determined for the following kinases: CDK1/cyclin B, CDK2/cyclin A, cSRC, Yes, MEK1, and Rsk1.

Sequence of Rsk1 (Q63531 whole entry): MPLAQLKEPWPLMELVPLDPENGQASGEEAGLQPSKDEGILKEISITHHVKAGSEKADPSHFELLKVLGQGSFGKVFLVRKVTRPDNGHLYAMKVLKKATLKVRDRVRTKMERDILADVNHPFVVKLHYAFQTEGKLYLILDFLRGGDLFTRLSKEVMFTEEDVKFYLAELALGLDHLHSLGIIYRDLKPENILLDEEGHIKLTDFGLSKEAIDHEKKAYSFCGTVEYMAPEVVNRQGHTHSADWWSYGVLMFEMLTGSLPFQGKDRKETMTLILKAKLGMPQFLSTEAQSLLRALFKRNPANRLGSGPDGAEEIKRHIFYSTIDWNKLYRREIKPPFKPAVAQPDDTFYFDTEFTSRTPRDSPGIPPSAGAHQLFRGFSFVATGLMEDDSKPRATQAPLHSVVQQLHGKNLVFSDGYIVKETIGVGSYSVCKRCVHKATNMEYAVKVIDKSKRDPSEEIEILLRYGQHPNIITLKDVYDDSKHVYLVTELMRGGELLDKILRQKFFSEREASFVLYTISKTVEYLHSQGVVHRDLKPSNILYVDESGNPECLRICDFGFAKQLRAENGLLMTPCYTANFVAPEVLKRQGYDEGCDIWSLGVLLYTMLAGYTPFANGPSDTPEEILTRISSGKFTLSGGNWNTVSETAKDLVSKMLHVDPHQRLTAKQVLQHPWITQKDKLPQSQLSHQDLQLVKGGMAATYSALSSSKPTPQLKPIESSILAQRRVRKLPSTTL

Rsk1 (% control)	SMILES
4 % control	COc1ccc2cc(-c3n[nH]c4ccc(-c5n[nH]c(CN6CCOCC6)n5)cc34)ccc2c1 [Compound 20]
29 % control	CC(C)(C)Cc1nc(-c2ccc3[nH]nc(-c4ccc5cc(OCc6ccccn6)ccc5c4)c3c2)n[nH]1 [Compound 92]
